tested on: green peach aphid (Myzus persicae); assay: Insecticidal effect on green peach aphid (Test Example 7); format: in vivo; settings: 144 h, stems and leaves of Chinese cabbage sprayed, parasites counted six days after spraying, read-out: insecticidal effect (control efficacy)
Text: Insecticidal Effect on Green Peach Aphid (Myzus persicae)
A Chinese cabbage plant was planted in each of plastic pots with a diameter of 8 cm and a height of 8 cm, and green peach aphids were propagated on the plant. The number of parasites of each pot was counted.
Then, the stems and leaves were sufficiently sprayed with the test solution. After air-drying, the pots were allowed to stand in a greenhouse.
Control efficacy (%)=100[(T×Ca)/(Ta×C)]×100
Ta: number of parasites before spraying in treated group,
T : number of parasites after spraying in treated group,
Ca: number of parasites before spraying in untreated group,
[…]: number of parasites after spraying in untreated group.

| Structure (SMILES) | pest or weed control at 500 ppm |
| --- | --- |
| CCn1ncc(NC(=O)Cc2ccc(Oc3nc(C(F)(F)F)cs3)c(OC)c2)c1Cl [Compound D-94, 5-chloro-4-(3-methoxy-4-(4-trifluoromethylthiazole-2-yloxy)phenylacetylamino)-1-ethylpyrazole] | 100% |
| Cc1nn(C)c(Cl)c1NC(=O)Cc1ccc(-c2ccc(OC(F)(F)F)cc2)cc1 [Compound B-23, 5-chloro-4-(4-(4-trifluoromethoxyphenyl)phenylacetylamino)-1,3-dimethylpyrazole] | 100% |
| CCn1ncc(NC(=O)Cc2ccc(Oc3ccc(C(F)(F)F)cn3)c(OC)c2)c1Br [Compound D-79, 5-bromo-4-(3-methoxy-4-(5-trifluoromethylpyridine-2-yloxy)phenylacetylamino)-1-ethylpyrazole] | 100% |
| CCn1ncc(NC(=O)Cc2ccc(Oc3ccc(C(F)(F)F)nn3)c(OC)c2)c1Cl [Compound D-78, 5-chloro-4-(3-methoxy-4-(6-trifluoromethylpyridazine-3-yloxy)phenylacetylamino)-1-ethylpyrazole] | 100% |
| COc1cc(CC(=O)Nc2cnn(CCCl)c2Cl)ccc1Oc1ccc(C(F)(F)F)cn1 [Compound D-71, 5-chloro-4-(3-methoxy-4-(5-trifluoromethylpyridine-2-yloxy)phenylacetylamino)-1-(2-chloroethyl) pyrazole] | 100% |
| Cc1nn(C)c(Cl)c1NC(=O)Cc1ccc2oc(CC(C)(C)C)nc2c1 [Compound C-1, 5-chloro-4-(2-(2,2-dimethylpropyl)benzoxazole-5-ylacetylamino)-1,3-dimethylpyrazole] | 100% |
| CCn1ncc(NC(=O)Cc2ccc(Oc3ccc(C(F)(F)F)cn3)c(OC)c2)c1Cl [Compound D-33, 5-chloro-4-(3-methoxy-4-(5-trifluoromethylpyridine-2-yloxy)phenylacetylamino)-1-ethylpyrazole] | 100% |

— patent US20040043904A1, “N-(4-pyrazolyl) amide derivatives, chemicals for agricultural and horticultural use, and usage of the same” (priority 2003, published 2004)
